Data on two compounds can be found in patent US20260053799A1, “COMPOUNDS FOR TREATING CANCER” (EVEXTA BIO, priority 2022, published 2026).

Molecules are shown by their SMILES. Entries after “also recorded” stand apart in the source; their conditions may differ.

One series concerns MCF7 tumors. Put plainly: Antitumor efficacy in xenograft model of SCID-CB17 mice implanted with MCF7 cells. The format is in vivo. Conditions: per os, qd 5 weeks. The procedure:
Antitumor efficacy of anticancer compounds in a xenograft model of SCID-CB17 mice implanted with MCF7 cells, and assessment of the substrates phosphorylation.
MCF7 cells are amplified in vitro in complete medium prior implantation. 24h prior cells injection, the mice are implanted with an estrogen pellet (Innovative Research of America at 0.18 mg/pellet).
On the day of injection, cells are harvested, counted thanks to a trypan blue viability dye (acceptability cut-off ≥80% viability), and resuspended in 50:50 PBS:Matrigel at the appropriate concentration. The cells are then injected subcutaneously in the right flank at 5.10^6 cells/mouse in 200 μL PBS:Matrigel within 30 minutes after harvesting, in 120 mice. […]
In order to assess the effectiveness of the compounds on tumorigenesis, tumor volume are measured twice per week for 8 weeks and mice are weighed once per week for 8 weeks.
The sizes of the primary tumors are measured using calipers and the tumor volume (TV) is extrapolated to a sphere using the formula TV=4/3π×r3, by calculating the mean radius from the two measurements. […]

Series [1] concerns ER+ and HER2+breast cancer. Conditions: patients, cited from earlier work.
For series [2] the following is noted: Machl et al., 2016; cited from earlier work.
Series [3] can be described thus: Plasma and brain concentration after dosing (blood brain barrier crossing), Table A. The format is in vivo. To be noted: for Concentration: dose 25 mg/kg, administered orally. An excerpt:
The present disclosure also encompasses the advantageous therapeutic use of a quinazoline carboxamide azetidine compound, preferably of 4-[(S)-2-Azetidin-1-yl-1-(4-chloro-3-trifluoromethyl-phenyl)-ethylamino]-quinazoline-8-carboxylic acid amide (M2698) or a pharmaceutically acceptable polymorph, enantiomer, stereoisomer, salt, solvate or tautomer thereof, for treating a metastasized cancer, e.g., a cancer that has spread to the brain, a bone, a lung, the liver, or the central nervous system.

As for `CCNCCc1ccc(CN(CC)c2cc(OC)ccc2[C@@H]2CCc3cc(O)ccc3C2)cc1` [Elacestrant, (R)-6-(2-(ethyl(4-(2-(ethylamino)ethyl)benzyl)amino)-4-methoxyphenyl)-5,6,7,8-tetrahydronaphthalen-2-ol, reference compound], the “MCF7 tumor growth (tumor volume)” value in the series on MCF7 tumors (Elacestrant 50 mg/kg/day) was “weakly inhibited”.

As to `NC(=O)c1cccc2c(N[C@H](CN3CCC3)c3ccc(Cl)c(C(F)(F)F)c3)ncnc12` [M2698, 4-[(S)-2-Azetidin-1-yl-1-(4-chloro-3-trifluoromethyl-phenyl)-ethylamino]-quinazoline-8-carboxylic acid amide], the Tolerability entry in series [1] (monotherapy and combined with trastuzumab or tamoxifen) is given as “well tolerated”. In addition, the Efficacy of monotherapy result in series [1] (monotherapy) was “modest”. Besides, in the series with MCF7 tumors (M2698 20 mg/kg/day, 20 mg/kg/day), the “MCF7 tumor growth (tumor volume)” value is on record as “strong antitumor efficacy; also recorded: strongly inhibited tumor growth”. For the same compound, in series [2], the “Crosses the blood-brain barrier” value is on record as “crosses the blood-brain barrier”. Moreover, the Concentration in series [3] (Brain) was 4000 ng/mL; in series [3] (Plasma), 1600 ng/mL. Also, the “Ability to cross the blood brain barrier” value in series [3] (administered orally at 25 mg/kg of body weight) is “able to cross the blood brain barrier”.
